Columns and labels:
Test in all cases: relative viability (nuclei count vs DMSO), 5 days (fraction); higher = more cells survive
A-427 = tested on: A-427
How it was run: (§1)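 Lung cancer cell lines were seeded in 1536-well plates and dosed by pin tool the next day, with either a single drug or a fixed anchor-drug dose combined with five library-drug doses (not always all listed) spaced in √10 steps. Five days later, one step fixed the cells and stained their nuclei (final 0.05% Triton X-100, 1% formaldehyde, 1 ug/ml Hoechst), and nuclei were counted on 4× images. Relative viability is the nuclei count in treated wells divided by the count in vehicle wells, and each value is the median of duplicate plates.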

HCC-15 = tested on: HCC-15
How it was run: as §1

HCC-78 = tested on: HCC-78
How it was run: as §1

HOP-62 = tested on: HOP-62
How it was run: as §1

LC-2-ad = tested on: LC-2-ad
How it was run: as §1

LXF-289 = tested on: LXF-289
How it was run: as §1

NCI-H1734 = tested on: NCI-H1734
How it was run: as §1

NCI-H1755 = tested on: NCI-H1755
How it was run: as §1

NCI-H1915 = tested on: NCI-H1915
How it was run: as §1

NCI-H1975 = tested on: NCI-H1975
How it was run: as §1

NCI-H2126 = tested on: NCI-H2126
How it was run: as §1

NCI-H2228 = tested on: NCI-H2228
How it was run: as §1

NCI-H2342 = tested on: NCI-H2342
How it was run: as §1

NCI-H2347 = tested on: NCI-H2347
How it was run: as §1

NCI-H358 = tested on: NCI-H358
How it was run: as §1

NCI-H522 = tested on: NCI-H522
How it was run: as §1

NCI-H647 = tested on: NCI-H647
How it was run: as §1

PC-3 [JPC-3] = tested on: PC-3 [JPC-3]
How it was run: as §1

RERF-LC-KJ = tested on: RERF-LC-KJ
How it was run: as §1

SK-LU-1 = tested on: SK-LU-1
How it was run: as §1

SW 1573 = tested on: SW 1573
How it was run: as §1

Structure (SMILES): Cc1sc2c(c1C)C(c1ccc(Cl)cc1)=N[C@@H](CC(=O)OC(C)(C)C)c1nnc(C)n1-2 [JQ1] + Cc1cc(Nc2cc(N3CCN(C)CC3)nc(Sc3ccc(NC(=O)C4CC4)cc3)n2)n[nH]1 [Tozasertib] (partner 0.1 µM)
- relative viability (A-427; first compound 0.04 µM): 0.195
- relative viability (A-427; first compound 0.1265 µM): 0.188
- relative viability (A-427; first compound 0.4 µM): 0.173
- relative viability (A-427; first compound 1.265 µM): 0.131
- relative viability (A-427; first compound 4 µM): 0.125
- relative viability (HCC-15; first compound 0.04 µM): 0.417
- relative viability (HCC-15; first compound 0.4 µM): 0.314
- relative viability (HCC-15; first compound 1.265 µM): 0.119
- relative viability (HCC-15; first compound 4 µM): 0.0896
- relative viability (HCC-78; first compound 0.04 µM): 0.474
- relative viability (HCC-78; first compound 0.1265 µM): 0.389
- relative viability (HCC-78; first compound 0.4 µM): 0.4
- relative viability (HCC-78; first compound 1.265 µM): 0.299
- relative viability (HCC-78; first compound 4 µM): 0.302
- relative viability (HOP-62; first compound 0.04 µM): 0.361
- relative viability (HOP-62; first compound 0.1265 µM): 0.305
- relative viability (HOP-62; first compound 0.4 µM): 0.192
- relative viability (HOP-62; first compound 1.265 µM): 0.122
- relative viability (HOP-62; first compound 4 µM): 0.122
- relative viability (LC-2-ad; first compound 0.04 µM): 0.45
- relative viability (LC-2-ad; first compound 0.1265 µM): 0.351
- relative viability (LC-2-ad; first compound 0.4 µM): 0.351
- relative viability (LC-2-ad; first compound 1.265 µM): 0.297
- relative viability (LC-2-ad; first compound 4 µM): 0.232
- relative viability (LXF-289; first compound 0.04 µM): 0.171
- relative viability (LXF-289; first compound 0.1265 µM): 0.134
- relative viability (LXF-289; first compound 0.4 µM): 0.0871
- relative viability (LXF-289; first compound 1.265 µM): 0.0699
- relative viability (LXF-289; first compound 4 µM): 0.0528
- relative viability (NCI-H1734; first compound 0.04 µM): 0.259
- relative viability (NCI-H1734; first compound 0.1265 µM): 0.209
- relative viability (NCI-H1734; first compound 0.4 µM): 0.215
- relative viability (NCI-H1734; first compound 1.265 µM): 0.204
- relative viability (NCI-H1734; first compound 4 µM): 0.212
- relative viability (NCI-H1755; first compound 0.04 µM): 0.587
- relative viability (NCI-H1755; first compound 0.1265 µM): 0.584
- relative viability (NCI-H1755; first compound 0.4 µM): 0.566
- relative viability (NCI-H1755; first compound 1.265 µM): 0.444
- relative viability (NCI-H1755; first compound 4 µM): 0.411
- relative viability (NCI-H1915; first compound 0.04 µM): 0.439
- relative viability (NCI-H1915; first compound 0.1265 µM): 0.344
- relative viability (NCI-H1915; first compound 0.4 µM): 0.325
- relative viability (NCI-H1915; first compound 1.265 µM): 0.218
- relative viability (NCI-H1915; first compound 4 µM): 0.15
- relative viability (NCI-H1975; first compound 0.04 µM): 0.75
- relative viability (NCI-H1975; first compound 0.1265 µM): 0.515
- relative viability (NCI-H1975; first compound 0.4 µM): 0.487
- relative viability (NCI-H1975; first compound 1.265 µM): 0.214
- relative viability (NCI-H1975; first compound 4 µM): 0.171
- relative viability (NCI-H2126; first compound 0.04 µM): 0.8
- relative viability (NCI-H2126; first compound 0.1265 µM): 0.849
- relative viability (NCI-H2126; first compound 0.4 µM): 0.607
- relative viability (NCI-H2126; first compound 1.265 µM): 0.419
- relative viability (NCI-H2126; first compound 4 µM): 0.31
- relative viability (NCI-H2228; first compound 0.04 µM): 0.286
- relative viability (NCI-H2228; first compound 0.1265 µM): 0.284
- relative viability (NCI-H2228; first compound 0.4 µM): 0.207
- relative viability (NCI-H2228; first compound 1.265 µM): 0.126
- relative viability (NCI-H2228; first compound 4 µM): 0.08
- relative viability (NCI-H2342; first compound 0.04 µM): 0.65
- relative viability (NCI-H2342; first compound 0.1265 µM): 0.436
- relative viability (NCI-H2342; first compound 0.4 µM): 0.46
- relative viability (NCI-H2342; first compound 1.265 µM): 0.45
- relative viability (NCI-H2342; first compound 4 µM): 0.336
- relative viability (NCI-H2347; first compound 0.04 µM): 0.539
- relative viability (NCI-H2347; first compound 0.1265 µM): 0.554
- relative viability (NCI-H2347; first compound 0.4 µM): 0.489
- relative viability (NCI-H2347; first compound 1.265 µM): 0.308
- relative viability (NCI-H2347; first compound 4 µM): 0.237
- relative viability (NCI-H358; first compound 0.04 µM): 0.102
- relative viability (NCI-H358; first compound 0.1265 µM): 0.102
- relative viability (NCI-H358; first compound 0.4 µM): 0.124
- relative viability (NCI-H358; first compound 1.265 µM): 0.107
- relative viability (NCI-H358; first compound 4 µM): 0.0861
- relative viability (NCI-H522; first compound 0.04 µM): 0.598
- relative viability (NCI-H522; first compound 0.1265 µM): 0.503
- relative viability (NCI-H522; first compound 0.4 µM): 0.454
- relative viability (NCI-H522; first compound 1.265 µM): 0.434
- relative viability (NCI-H522; first compound 4 µM): 0.339
- relative viability (NCI-H647; first compound 0.04 µM): 0.353
- relative viability (NCI-H647; first compound 0.1265 µM): 0.203
- relative viability (NCI-H647; first compound 0.4 µM): 0.202
- relative viability (NCI-H647; first compound 1.265 µM): 0.0994
- relative viability (NCI-H647; first compound 4 µM): 0.0445
- relative viability (PC-3 [JPC-3]; first compound 0.04 µM): 0.924
- relative viability (PC-3 [JPC-3]; first compound 0.1265 µM): 0.935
- relative viability (PC-3 [JPC-3]; first compound 0.4 µM): 0.588
- relative viability (PC-3 [JPC-3]; first compound 1.265 µM): 0.502
- relative viability (PC-3 [JPC-3]; first compound 4 µM): 0.296
- relative viability (RERF-LC-KJ; first compound 0.04 µM): 0.496
- relative viability (RERF-LC-KJ; first compound 0.1265 µM): 0.299
- relative viability (RERF-LC-KJ; first compound 0.4 µM): 0.315
- relative viability (RERF-LC-KJ; first compound 1.265 µM): 0.222
- relative viability (RERF-LC-KJ; first compound 4 µM): 0.213
- relative viability (SK-LU-1; first compound 0.04 µM): 0.282
- relative viability (SK-LU-1; first compound 0.1265 µM): 0.27
- relative viability (SK-LU-1; first compound 0.4 µM): 0.249
- relative viability (SK-LU-1; first compound 1.265 µM): 0.0708
- relative viability (SK-LU-1; first compound 4 µM): 0.0741
- relative viability (SW 1573; first compound 0.04 µM): 0.182
- relative viability (SW 1573; first compound 0.1265 µM): 0.137
- relative viability (SW 1573; first compound 0.4 µM): 0.181
- relative viability (SW 1573; first compound 1.265 µM): 0.141
- relative viability (SW 1573; first compound 4 µM): 0.16
